# What was measured:
# [1] = target: T1, CDK8/CycC (Homo sapiens, UniProt P49336); assay: Radiometric protein kinase assay (33PanQinase Activity Assay, ProQinase); format: biochemical; settings: 1.0 μM ATP, 1.0 μg/50 μL substrate RBER-IRStide, duplicate measurements, read-out: CDK8 Kinase inhibition IC50
# T1 construct: purchased ProQinase GmbH, Freiburg, Germany
# Protocol: The kinase activity of CDK8/CycC was measured using a radiometric protein kinase assay (33PanQinase® Activity Assay) by ProQinase GmbH, Freiburg, Germany, with the protocols shown at www.proqinase.com/sites/default/files/public/uploads/WildtypeProfiler/radiometric_assay_v05_2012_manual.pdf. IC50 determination (8.3 nM with 1.0 μM ATP and 1.0 μg/50 μL of substrate RBER-IRStide) was performed as duplicate measurements and calculated using Quattro Workflow V3.1.1 (Quattro Research GmbH, Germany). Apparent inhibition constants (Ki) values were calculated from Km (ATP) and IC50 values for the respective kinases.
# [2] = test system: HCT-116; assay: Cell viability assay (MTT, solid tumour cell lines), 72 h growth inhibition; format: cell-based; settings: Homo sapiens, HCT-116 cells
# Source text: (§1) Compounds from Example 1 may be subjected to a standard MTT (3-(4,5-dimethylthiazol-2-yl)-2,5-diphenyltetrazolium bromide) and resazurin assays on solid tumour cell lines and leukemia cell lines, respectively, as previously reported (Wang S et al., J Med Chem 47:1662-1675, 2004 and Diab S e al. CheMedChem 9:962-972, 2014). Compound concentrations required to inhibit 50% of cell growth (GI50) can be calculated using non-linear regression analysis.
# [3] = test system: MV-4-11; assay: Cell viability assay (resazurin, leukemia cell lines), 72 h growth inhibition; format: cell-based; settings: Homo sapiens, MV4-11, MV-4-11 cells
# Source text: as §1
# T1 sequence (P49336 whole entry): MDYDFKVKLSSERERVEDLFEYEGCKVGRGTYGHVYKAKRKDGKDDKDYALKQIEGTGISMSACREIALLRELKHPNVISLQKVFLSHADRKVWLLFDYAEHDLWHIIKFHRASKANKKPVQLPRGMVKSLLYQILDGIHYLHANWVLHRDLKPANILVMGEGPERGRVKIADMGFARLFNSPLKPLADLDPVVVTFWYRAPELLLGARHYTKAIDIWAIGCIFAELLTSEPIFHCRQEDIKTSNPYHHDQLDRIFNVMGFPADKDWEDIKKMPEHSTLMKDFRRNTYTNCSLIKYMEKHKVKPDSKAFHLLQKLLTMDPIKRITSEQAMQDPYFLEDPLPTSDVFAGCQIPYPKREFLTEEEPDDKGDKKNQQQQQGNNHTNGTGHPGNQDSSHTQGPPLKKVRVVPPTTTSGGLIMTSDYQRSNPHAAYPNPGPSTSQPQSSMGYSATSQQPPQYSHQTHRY
# T1 sequence (P24863 whole entry partner): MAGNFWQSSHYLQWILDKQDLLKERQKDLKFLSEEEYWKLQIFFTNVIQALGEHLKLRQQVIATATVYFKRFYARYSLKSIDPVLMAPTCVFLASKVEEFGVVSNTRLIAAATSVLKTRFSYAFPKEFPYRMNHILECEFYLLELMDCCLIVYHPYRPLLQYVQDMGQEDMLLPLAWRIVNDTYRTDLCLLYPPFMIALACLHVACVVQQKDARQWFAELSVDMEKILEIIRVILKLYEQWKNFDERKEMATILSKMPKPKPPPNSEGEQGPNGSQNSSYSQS
SMILES,IC50 [1] [nM],GI50 [2] [nM],GI50 [3] [nM]
"CNc1ncc(Cl)c(-c2sc(NC(=O)Nc3ccc(CN4CCN(C(C)=O)CC4)c(C(F)(F)F)c3)nc2C)n1 [Compound 68, 1-(4-((4-Acetylpiperazin-1-yl)methyl)-3-(trifluoromethyl)phenyl)-3-(5-(5-chloro-2-(methylamino)pyrimidin-4-yl)-4-methylthiazol-2-yl)urea]",80,,4250 ± 420
"CNc1ncc(Cl)c(-c2sc(NC(=O)Nc3ccc(CN4CCN(S(C)(=O)=O)CC4)c(C(F)(F)F)c3)nc2C)n1 [Compound 69, 1-(5-(5-Chloro-2-(methylamino)pyrimidin-4-yl)-4-methylthiazol-2-yl)-3-(4-((4-(methylsulfonyl)piperazin-1-yl)methyl)-3-(trifluoromethyl)phenyl)urea]",132,,4690 ± 420
"CCN1CCN(Cc2ccc(NC(=O)Nc3nc(C)c(-c4nc(NC)ncc4C#N)s3)cc2C(F)(F)F)CC1 [Compound 72, 1-(5-(5-Cyano-2-(methylamino)pyrimidin-4-yl)-4-methylthiazol-2-yl)-3-(4-((4-ethylpiperazin-1-yl)methyl)-3-(trifluoromethyl)phenyl)urea]",64,,432 ± 10
"CNc1ncc(C#N)c(-c2sc(NC(=O)Nc3ccc(CN4CCN(S(C)(=O)=O)CC4)c(C(F)(F)F)c3)nc2C)n1 [Compound 74, 1-(5-(5-Cyano-2-(methylamino)pyrimidin-4-yl)-4-methylthiazol-2-yl)-3-(4-((4-(methylsulfonyl)piperazin-1-yl)methyl)-3-(trifluoromethyl)phenyl)urea]",272,,3250 ± 350
"CNc1ncc(C#N)c(-c2sc(NC(=O)Nc3ccc(CN4CCOCC4)c(C(F)(F)F)c3)nc2C)n1 [Compound 75, 1-(5-(5-Cyano-2-(methylamino)pyrimidin-4-yl)-4-methylthiazol-2-yl)-3-(4-(morpholinomethyl)-3-(trifluoromethyl)phenyl)urea]",82,,3420 ± 230
"Cc1nc(NC(=O)Nc2ccc(CN3CCN(C)CC3)c(C(F)(F)F)c2)sc1-c1ccnc(C(C)C)n1 [Compound 76, 1-(5-(2-Isopropylpyrimidin-4-yl)-4-methylthiazol-2-yl)-3-(4-((4-methylpiperazin-1-yl)methyl)-3-(trifluoromethyl)phenyl)urea]",74,,< 1
"CC(=O)N1CCN(Cc2ccc(NC(=O)Nc3nc(C)c(-c4ccnc(C(C)C)n4)s3)cc2C(F)(F)F)CC1 [Compound 77, 1-(4-((4-Acetylpiperazin-1-yl)methyl)-3-(trifluoromethyl)phenyl)-3-(5-(2-isopropylpyrimidin-4-yl)-4-methylthiazol-2-yl)urea]",169,,712 ± 20
"Cc1nc(NC(=O)Nc2ccc(CN3CCN(S(C)(=O)=O)CC3)c(C(F)(F)F)c2)sc1-c1ccnc(C(C)C)n1 [Compound 78, 1-(5-(2-Isopropylpyrimidin-4-yl)-4-methylthiazol-2-yl)-3-(4-((4-(methylsulfonyl)-piperazin-1-yl)methyl)-3-(trifluoromethyl)phenyl)urea]",293,,1590 ± 90
"Cc1nc(NC(=O)Nc2ccc(CN3CCOCC3)c(C(F)(F)F)c2)sc1-c1ccnc(C(C)C)n1 [Compound 79, 1-(5-(2-Isopropylpyrimidin-4-yl)-4-methylthiazol-2-yl)-3-(4-(morpholinomethyl)-3-(trifluoromethyl)phenyl)urea]",206,,998 ± 60
"CSc1nccc(-c2sc(NC(=O)Nc3ccc(CN4CCN(C)CC4)c(C(F)(F)F)c3)nc2C)n1 [Compound 80, 1-(4-Methyl-5-(2-(methylthio)pyrimidin-4-yl)thiazol-2-yl)-3-(4-((4-methyl-piperazin-1-yl)methyl)-3-(trifluoromethyl)phenyl)urea]",79,,1
"CSc1nccc(-c2sc(NC(=O)Nc3ccc(CN4CCN(C(C)=O)CC4)c(C(F)(F)F)c3)nc2C)n1 [Compound 81, 1-(4-((4-Acetylpiperazin-1-yl)methyl)-3-(trifluoromethyl)phenyl)-3-(4-methyl-5-(2-(methylthio)pyrimidin-4-yl)thiazol-2-yl)urea]",177,,715 ± 10
"CSc1nccc(-c2sc(NC(=O)Nc3ccc(CN4CCN(S(C)(=O)=O)CC4)c(C(F)(F)F)c3)nc2C)n1 [Compound 82, 1-(4-Methyl-5-(2-(methylthio)pyrimidin-4-yl)thiazol-2-yl)-3-(4-((4-(methyl-sulfonyl)piperazin-1-yl)methyl)-3-(trifluoromethyl)phenyl)urea]",220,,721 ± 30
"CSc1nccc(-c2sc(NC(=O)Nc3ccc(CN4CCOCC4)c(C(F)(F)F)c3)nc2C)n1 [Compound 83, 1-(4-Methyl-5-(2-(methylthio)pyrimidin-4-yl)thiazol-2-yl)-3-(4-(morpholinomethyl)-3-(trifluoromethyl)phenyl)urea]",121,,1560 ± 100

# Stronger by IC50 [1], values ahead:
IC50 [1] [nM],GI50 [2] [nM],GI50 [3] [nM],SMILES
59,,482 ± 30,"CNc1ncc(C#N)c(-c2sc(NC(=O)Nc3ccc(CN4CCN(C(C)C)CC4)c(C(F)(F)F)c3)nc2C)n1 [Compound 73, 1-(5-(5-Cyano-2-(methylamino)pyrimidin-4-yl)-4-methylthiazol-2-yl)-3-(4-((4-isopropylpiperazin-1-yl)methyl)-3-(trifluoromethyl)phenyl)urea]"
50,,200 ± 20,"CNc1ncc(C#N)c(-c2sc(NC(=O)Nc3ccc(CN4CCN(C)CC4)c(C(F)(F)F)c3)nc2C)n1 [Compound 71, 1-(5-(5-Cyano-2-(methylamino)pyrimidin-4-yl)-4-methylthiazol-2-yl)-3-(4-((4-methylpiperazin-1-yl)methyl)-3-(trifluoromethyl)phenyl)urea]"
30,,174 ± 10,"CNc1ncc(Cl)c(-c2sc(NC(=O)Nc3ccc(CN4CCN(C(C)C)CC4)c(C(F)(F)F)c3)nc2C)n1 [Compound 67, 1-(5-(5-Chloro-2-(methylamino)pyrimidin-4-yl)-4-methylthiazol-2-yl)-3-(4-((4-isopropylpiperazin-1-yl)methyl)-3-(trifluoromethyl)phenyl)urea]"
25,,273 ± 10,"CNc1ncc(F)c(-c2sc(NC(=O)Nc3ccc(CN4CCOCC4)c(C(F)(F)F)c3)nc2C)n1 [Compound 70, 1-(5-(5-Fluoro-2-(methylamino)pyrimidin-4-yl)-4-methylthiazol-2-yl)-3-(4-(morpholinomethyl)-3-(trifluoromethyl)phenyl)urea]"
21,,73 ± 30,"CCN1CCN(Cc2ccc(NC(=O)Nc3nc(C)c(-c4nc(NC)ncc4Cl)s3)cc2C(F)(F)F)CC1 [Compound 66, 1-(5-(5-Chloro-2-(methylamino)pyrimidin-4-yl)-4-methylthiazol-2-yl)-3-(4-((4-ethylpiperazin-1-yl)methyl)-3-(trifluoromethyl)phenyl)urea]"
15,,55 ± 10,"CNc1ncc(Cl)c(-c2sc(NC(=O)Nc3ccc(CN4CCN(C)CC4)c(C(F)(F)F)c3)nc2C)n1 [Compound 65, 1-(5-(5-Chloro-2-(methylamino)pyrimidin-4-yl)-4-methylthiazol-2-yl)-3-(4-((4-methylpiperazin-1-yl)methyl)-3-(trifluoromethyl)phenyl)urea]"
6,854 ± 10,,"CCOc1cccc(NC(=O)Nc2nc(C)c(-c3ccnc(NC)n3)s2)c1 [Compound 19, 1-(3-Ethoxyphenyl)-3-(4-methyl-5-(2-(methylamino)pyrimidin-4-yl)thiazol-2-yl)urea]"

# Source: patent US11325900B2, “5-(pyrimidin-4-yl)thiazol-2-yl urea derivatives as therapeutic agents” (AUCENTRA HOLDINGS PTY LTD, priority 2018, dated 2022)
